# Laboratory results published in patent publication US5795954A, “Factor VIIa inhibitors from Kunitz domain proteins” (Genentech, Inc., priority 1994, dated 1998).
# Like-named read-outs stand apart in the source and are kept apart here. Positions of bridges follow the written chain, without caps; N, C: chain ends. No end group written: not given here.
# Tests used:
# Assay type in all cases: biochemical
# [1] = system: normal human plasma, clotting initiated by ellagic acid; assay: activated partial thromboplastin time (APTT) assay; conditions: ca. 7 μM inhibitor
# Description: FIG. 7. Prolongation of clotting time in the APTT assay in normal human plasma. […] The uninhibited clotting time was 31 sec.
# For the activated partial thromboplastin time (APTT) assays, the activation time was set at 120 sec and acquisition time at 300 to 600 sec depending on the expected outcome of the assay. Citrated normal human plasma and inhibitor were incubated together. The sample (plasma and inhibitor) and activator (Instrumentation Laboratories Ellagic acid/Phospholipid mix Test Reagent) were automatically pipetted and incubated together for 2 min at 37° C., then CaCl2 was added and clotting time determined by means of optical assessment. The total incubation time of inhibitor with plasma was ca. 3 min before addition of activator, and 5 min before addition of CaCl2.
# [2] = system: normal human plasma, clotting initiated by TF membranes; assay: tissue factor initiated prothrombin time (PT) assay
# Description: FIG. 6. Prolongation of clotting time in the PT assay in normal human plasma. […] The uninhibited clotting time was 48 sec.
# Clotting times were performed using the ACL 300 Research Coagulation Analyzer. For the prothrombin time (PT) assays, the incubation time was set at 120 sec and acquisition time at 120 to 600 sec depending on the expected outcome of the assay. Membranes from 293 cells expressing full length TF (Paborsky, L. R. et al., Biochemistry 28: 8072-8077 [1989]) were premixed with CaCl2. The sample (plasma and inhibitor) and reagent (CaCl2 /TF) were automatically mixed together after a 2 min incubation at 37° C. The clotting time was determined by optical assessment. The total incubation time of inhibitor with plasma before addition of CaCl2 /TF was ca. 5 min. Final concentrations were 2 to 20 μM inhibitor, 3.7 nM TF (0.9 μg/ml by protein content), 22.5 mM CaCl2, and 50% plasma in a total volume of 160 μL.
# activated protein C = target: T1, activated protein C (Homo sapiens, UniProt P04070); assay: activated protein C enzyme inhibition assay (Ki*)
# T1 construct: purchased Haematologic Technologies Inc. (Essex Jct., Vt.)
# Description: (§1) To aliquots of serial diluted inhibitor, either activated protein C, thrombin, FXa, FXIa, FXIIa, plasma kallikrein or plasmin were added. After incubation and addition of the appropriate substrate, plots of fractional activity versus inhibitor concentration were generated as described in Example 3.
# (§2) After incubation of the substrate/inhibitor mixes at room temperature for 1-3 h, the appropriate substrate (20 μL) was added, and the absorbance at 405 nm was monitored. Controls lacking inhibitor and enzyme were assayed to measure the uninhibited and substrate hydrolysis rates, respectively. Plots of the fractional rate versus inhibitor concentration were fit by nonlinear regression analysis to equation 1 and apparent equilibrium dissociation constants (Ki *) were determined. […] The concentrations of activated protein C, thrombin and plasmin were based upon those of the supplier.
# FXa = target: T2, FXa (Homo sapiens, UniProt P00742); assay: FXa enzyme inhibition assay (Ki*)
# T2 construct: purchased Haematologic Technologies Inc. (Essex Jct., Vt.)
# Description: as §1, §2
# TF.cndot.FVIIa = target: T3, TF.cndot.FVIIa (Homo sapiens, UniProt P08709); assay: TF·FVIIa enzyme inhibition assay, apparent equilibrium dissociation constant (Ki*)
# T3 construct: is generated by proteolysis of a single peptide bond from its zymogen Factor VII (FVII); purchased Haematologic Technologies Inc. (Essex Jct., Vt.); host or cells: TF1-243 made in house in E. coli
# Description: Aliquots (25 μL) from each well of a microtiter plate containing the serially diluted inhibitors were transferred into new microtiter plates, each containing a different protease (100 μL) in the appropriate buffer. The proteases tested (protease concentration, buffer, substrate) were FVIIa (10 nM, Buffer A, 0.7 mM S2366), FXIa (1.0 nM, Buffer B containing 1 mg/ml BSA, 0.7 mM S2366), plasma kallikrein (3.5 nM, Buffer B, 0.5 mM S2302), and plasmin (15 nM, Buffer B, 1 mM S2251).
# thrombin = thrombin (Homo sapiens, UniProt P00734); assay: thrombin enzyme inhibition assay (Ki*)
# Description: as §1, §2
# FXIIa = target: T4, FXIIa (Homo sapiens, UniProt P00748); assay: FXIIa enzyme inhibition assay (Ki*)
# T4 construct: purchased Enzyme Research Laboratories, Inc. (South Bend, Ind.)
# T4 sequence (P00748 373-615 limits assumed): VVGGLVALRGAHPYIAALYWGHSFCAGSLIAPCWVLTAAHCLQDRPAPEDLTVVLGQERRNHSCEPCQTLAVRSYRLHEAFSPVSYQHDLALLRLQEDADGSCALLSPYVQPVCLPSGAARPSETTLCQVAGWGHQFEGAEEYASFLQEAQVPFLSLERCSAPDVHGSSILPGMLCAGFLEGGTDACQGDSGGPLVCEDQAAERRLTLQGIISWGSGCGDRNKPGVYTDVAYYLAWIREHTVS
# T4 sequence (P00748 20-372 limits assumed): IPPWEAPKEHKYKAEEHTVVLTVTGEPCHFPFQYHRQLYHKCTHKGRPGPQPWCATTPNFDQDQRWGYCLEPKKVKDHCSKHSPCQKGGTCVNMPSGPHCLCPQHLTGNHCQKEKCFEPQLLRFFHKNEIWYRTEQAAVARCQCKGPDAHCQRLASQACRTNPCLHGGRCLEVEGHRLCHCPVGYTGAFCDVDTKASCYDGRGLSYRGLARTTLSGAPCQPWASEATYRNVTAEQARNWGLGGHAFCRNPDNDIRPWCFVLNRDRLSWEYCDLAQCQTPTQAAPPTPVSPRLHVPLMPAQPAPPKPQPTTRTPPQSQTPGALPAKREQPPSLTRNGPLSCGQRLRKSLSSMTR
# Description: as §1, §2
# [3] = equilibrium conditions, read-out: apparent Ki* with TF.cndot.FVIIa (FIG. 4)
# T3 sequence (P08709 213-466 limits assumed): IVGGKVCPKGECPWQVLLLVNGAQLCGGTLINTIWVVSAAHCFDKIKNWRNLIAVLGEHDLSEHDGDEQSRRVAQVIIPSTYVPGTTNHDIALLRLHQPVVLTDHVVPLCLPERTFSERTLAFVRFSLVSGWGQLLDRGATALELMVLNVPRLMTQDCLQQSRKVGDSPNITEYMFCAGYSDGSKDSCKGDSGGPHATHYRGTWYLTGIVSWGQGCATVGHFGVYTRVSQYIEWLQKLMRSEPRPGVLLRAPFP
# T3 sequence (P08709 61-212 limits assumed): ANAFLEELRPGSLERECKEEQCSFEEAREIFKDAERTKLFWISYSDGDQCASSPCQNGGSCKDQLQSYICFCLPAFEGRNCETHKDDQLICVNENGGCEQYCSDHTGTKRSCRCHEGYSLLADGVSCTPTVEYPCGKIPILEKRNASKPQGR
# T3 sequence (P13726 33-275 partner limits assumed): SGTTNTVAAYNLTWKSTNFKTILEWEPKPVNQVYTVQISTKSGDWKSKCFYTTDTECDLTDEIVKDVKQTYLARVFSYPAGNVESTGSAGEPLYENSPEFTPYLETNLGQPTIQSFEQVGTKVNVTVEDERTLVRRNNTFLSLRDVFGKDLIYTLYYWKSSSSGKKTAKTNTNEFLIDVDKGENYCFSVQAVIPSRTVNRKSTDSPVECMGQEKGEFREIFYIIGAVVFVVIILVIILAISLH
# T2 sequence (P00742 235-488 limits assumed): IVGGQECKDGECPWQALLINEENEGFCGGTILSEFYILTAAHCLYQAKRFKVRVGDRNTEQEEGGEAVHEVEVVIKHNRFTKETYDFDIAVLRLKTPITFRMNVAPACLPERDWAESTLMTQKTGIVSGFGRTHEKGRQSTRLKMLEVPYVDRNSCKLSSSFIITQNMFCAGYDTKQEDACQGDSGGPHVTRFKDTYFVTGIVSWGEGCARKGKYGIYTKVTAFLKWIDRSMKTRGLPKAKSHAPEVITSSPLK
# T2 sequence (P00742 41-179 limits assumed): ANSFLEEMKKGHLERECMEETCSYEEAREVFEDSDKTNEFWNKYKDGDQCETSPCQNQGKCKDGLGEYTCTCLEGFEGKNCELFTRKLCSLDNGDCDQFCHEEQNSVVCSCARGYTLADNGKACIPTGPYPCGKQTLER
# T1 sequence (P04070 212-450 limits assumed): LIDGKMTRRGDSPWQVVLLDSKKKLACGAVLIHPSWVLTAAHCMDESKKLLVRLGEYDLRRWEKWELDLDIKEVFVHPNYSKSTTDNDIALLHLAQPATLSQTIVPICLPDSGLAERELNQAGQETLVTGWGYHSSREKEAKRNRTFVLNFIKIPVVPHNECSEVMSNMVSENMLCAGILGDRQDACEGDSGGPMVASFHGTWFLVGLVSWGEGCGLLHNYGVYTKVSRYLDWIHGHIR
# T1 sequence (P04070 43-197 limits assumed): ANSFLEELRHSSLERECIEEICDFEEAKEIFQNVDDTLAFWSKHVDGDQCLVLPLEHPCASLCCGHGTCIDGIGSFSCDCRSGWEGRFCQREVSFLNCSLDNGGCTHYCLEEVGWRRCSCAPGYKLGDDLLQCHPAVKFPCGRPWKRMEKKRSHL
Substance,prolongation of clotting time in APTT assay [1],"prolongation of clotting time in PT assay ([2]; 10 μM inhibitor, clotting initiated by TF membranes) [fold]",prolongation of clotting time in PT assay ([2]; ca. 20 μM inhibitor) [fold],Ki (activated protein C) [µM],Ki (FXa) [µM],"Ki (TF.cndot.FVIIa; FVIIa 10 nM, TF1-243 50 nM, nonlinear regression, equation 1, read-out: Ki* with TF.cndot.FVIIa (FIG. 5, representative determination)) [nM]",Ki (TF.cndot.FVIIa; [3]) [nM],Ki (thrombin) [µM],Ki (FXIIa) [µM]
"TF7I-C: APPI Kunitz domain variant (SEQ ID NO: 33) with Thr11Pro, Met17Leu, Ser19Leu and Gly39Tyr compared to wild type APPI",greater than 10 fold,~3,4,–,–,–,–,–,–
"VREVCSEQAETGPCRAMISRWYFDVTEGKCAPFFYGGCGGNRNNFDTEEYCMAVCGSA (disulfide 5-55, 14-38, 30-51) [APPI]",–,–,–,> 10,> 10,300,301 ± 44,> 10,> 10
first Kunitz domain of TFPI: first Kunitz domain (residues 22-79) of human tissue factor pathway inhibitor (MHSFCAFKADDGPCKAIMKRFFFNIFTRQCEEFIYGGCEGNQNRFESLEECKKMCTRD),–,–,–,–,–,–,~600,–,–
